Source: patent publication US9120774B2 (University of Kansas, priority 2009, dated 2015)
Like-named read-outs stand apart in the source and are kept apart here.

Assays:
Type in all cases: cell-based
[1] = tested on: MCF-7 (estrogen receptor positive breast cancer cells); assay: Anti-proliferation activity against MCF-7 cells (MTS/PMS); conditions: Homo sapiens, MCF7, n = 3, read-out: IC50 MCF-7
Method in brief: (§1)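 Viability after 72 h compound treatment (1% DMSO final, 37° C., 5% CO2) measured by MTS/PMS; plating density 2000 cells/well with overnight attachment.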

[2] = tested on: PC-3 (androgen independent prostate cancer cells); assay: Anti-proliferation activity against PC-3 cells; conditions: Homo sapiens, PC-3, n = 3, read-out: IC50 PC-3
Method in brief: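 Antiproliferative activity was tested in PC-3 androgen-independent prostate cancer cells. Cells grown at 37° C. with 5% CO2 in Advanced DMEM/F12 (1:1) containing non-essential amino acids, 2 mM L-glutamine, streptomycin, penicillin and 10% FBS were plated at 2000/well in 96-well plates. Proliferation was normalized to 1% DMSO controls, and IC50 values from triplicate experiments were fitted in GraphPad Prism.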

[3] = tested on: LNCaP (androgen sensitive prostate cancer cells); assay: Anti-proliferation activity against LNCaP cells; conditions: Homo sapiens, LNCaP, n = 3, read-out: IC50 LNCaP
Method in brief: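 Cells seeded at 2000/well in Advanced DMEM/F12 with 10% FBS and attached overnight, then given compound in 1% DMSO final for 72 h at 37 °C, 5% CO2. Viable cells by MTS/PMS read-out, normalised to 1% DMSO as 100% proliferation. IC50 from separate triplicate experiments.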

[4] = tested on: PL45 (pancreatic cancer cells); assay: Anti-proliferation activity against PL45 cells
Procedure: (§2) Upon completion of synthesis of library of compounds in Examples 23 and 24, the compounds were evaluated for anti-proliferative activity against SkBr3 (Her2 overexpressing breast cancer cells), MCF-7 (estrogen receptor positive breast cancer cells), HCT-116 (colon cancer cells characterized by wild-type p53), PL45 (pancreatic cancer cells), LNCaP (androgen sensitive prostate cancer cells) and PC-3 (androgen independent prostate cancer cells) cell lines. […] The monosubstituted benzamide variants improved activity.

[5] = tested on: HCT-116 (colon cancer cells characterized by wild-type p53); assay: Anti-proliferation activity against HCT-116 cells; conditions: Homo sapiens
Procedure: as §2

[6] = tested on: SkBr3 (Her2 overexpressing breast cancer cells); assay: Anti-proliferation activity against SkBr3 cells (MTS/PMS); conditions: Homo sapiens, SK-BR-3, n = 3, read-out: IC50 SkBr3
Method in brief: as §1

[7] = Table 4, biaryl analogues, n = 3
[8] = Table 5, heterocyclic analogues
[9] = Table 5, heterocyclic analogues, n = 3

Compound | IC50 ([1]; Table 4, biaryl analogues) | IC50 ([2]; Table 4, biaryl analogues) | IC50 ([3]; Table 4, biaryl analogues) | IC50 [4, 7] | IC50 [5, 7] | IC50 ([6]; Table 4, biaryl analogues) | also measured
CO[C@@H]1[C@@H](O)[C@@H](O)[C@H](Oc2ccc3cc(NC(=O)CCc4ccccc4)c(=O)oc3c2C)OC1(C)C [compound 23, N-(7-((2R,3R,4S,5R)-3,4-Dihydroxy-5-methoxy-6,6-dimethyltetrahydro-2H-pyran-2-yloxy)-8-methyl-2-oxo-2H-chromen-3-yl)-3-phenylpropanamide] | – | – | – | – | – | – | IC50 ([1]; Table 3): 6.9 ± 0.3 µM; IC50 ([2]; Table 3): 22 ± 5.8 µM; IC50 ([3]; Table 3): 92.8 ± 0.9 µM; IC50 ([4]; Table 3, n = 3): 9.8 ± 0.2 µM; IC50 ([5]; Table 3, n = 3): 5.4 ± 0.6 µM; IC50 ([6]; Table 3): 10.2 ± 2.3 µM
COc1ccc(C(=O)Nc2cc3ccc(O[C@@H]4OC(C)(C)[C@H](OC)[C@@H](O)[C@H]4O)c(C)c3oc2=O)cc1-c1ccccc1 [compound 28, N-(7-((2R,3R,4S,5R)-3,4-Dihydroxy-5-methoxy-6,6-dimethyltetrahydro-2H-pyran-2-yloxy)-8-methyl-2-oxo-2H-chromen-3-yl)-6-methoxybiphenyl-3-carboxamide] | 19.5 ± 2.3 µM | 25.4 ± 5.2 µM | 1.9 ± 0.2 µM | 2.8 ± 0.4 µM | 11.4 µM | 16.5 ± 4.7 µM | –
COc1ccc(C(=O)Nc2cc3ccc(O[C@@H]4OC(C)(C)[C@H](OC)[C@@H](O)[C@H]4O)c(C)c3oc2=O)cc1-c1ccccc1C [compound 29, N-(7-((2R,3R,4S,5R)-3,4-Dihydroxy-5-methoxy-6,6-dimethyltetrahydro-2H-pyran-2-yloxy)-8-methyl-2-oxo-2H-chromen-3-yl)-6-methoxy-2′-methylbiphenyl-3-carboxamide] | 18.9 ± 2.7 µM | 64.7 ± 17.1 µM | 22.6 ± 3.3 µM | 6.8 ± 1.5 µM | 37.5 ± 3.4 µM | 32.4 ± 5.1 µM | –
COc1ccc(C(=O)Nc2cc3ccc(O[C@@H]4OC(C)(C)[C@H](OC)[C@@H](O)[C@H]4O)c(C)c3oc2=O)cc1-c1cccc(C)c1 [compound 30, N-(7-((2R,3R,4S,5R)-3,4-Dihydroxy-5-methoxy-6,6-dimethyltetrahydro-2H-pyran-2-yloxy)-8-methyl-2-oxo-2H-chromen-3-yl)-6-methoxy-3′-methylbiphenyl-3-carboxamide] | 20.4 ± 0.8 µM | 50.7 ± 4.3 µM | 4.2 ± 1.2 µM | 4.2 ± 1 µM | 26.4 ± 0.6 µM | 20.4 ± 3.5 µM | –
COc1ccc(C(=O)Nc2cc3ccc(O[C@@H]4OC(C)(C)[C@H](OC)[C@@H](O)[C@H]4O)c(C)c3oc2=O)cc1-c1ccc(C)cc1 [compound 31, N-(7-((2R,3R,4S,5R)-3,4-Dihydroxy-5-methoxy-6,6-dimethyltetrahydro-2H-pyran-2-yloxy)-8-methyl-2-oxo-2H-chromen-3-yl)-6-methoxy-4′-methylbiphenyl-3-carboxamide] | 16.7 ± 6.3 µM | 31.9 ± 10.3 µM | 3.7 ± 0.9 µM | 1.4 ± 0.1 µM | 2.4 ± 1 µM | 25.4 ± 1.7 µM | –
COc1cccc(-c2cc(C(=O)Nc3cc4ccc(O[C@@H]5OC(C)(C)[C@H](OC)[C@@H](O)[C@H]5O)c(C)c4oc3=O)ccc2OC)c1 [compound 33, N-(7-((2R,3R,4S,5R)-3,4-Dihydroxy-5-methoxy-6,6-dimethyltetrahydro-2H-pyran-2-yloxy)-8-methyl-2-oxo-2H-chromen-3-yl)-3′,6-dimethoxybiphenyl-3-carboxamide] | 18.7 ± 1.8 µM | 53.3 ± 4.5 µM | 2.1 ± 0.3 µM | 2 ± 0.6 µM | 5.1 ± 1.1 µM | 7.5 ± 1 µM | –
COc1ccc(-c2cc(C(=O)Nc3cc4ccc(O[C@@H]5OC(C)(C)[C@H](OC)[C@@H](O)[C@H]5O)c(C)c4oc3=O)ccc2OC)cc1 [compound 34, N-(7-((2R,3R,4S,5R)-3,4-Dihydroxy-5-methoxy-6,6-dimethyltetrahydro-2H-pyran-2-yloxy)-8-methyl-2-oxo-2H-chromen-3-yl)-4′,6-dimethoxybiphenyl-3-carboxamide] | 37.9 ± 2.3 µM | 44 ± 20.3 µM | 3.3 ± 0.6 µM | 2.6 ± 0.5 µM | 24 ± 0.3 µM | 7.8 ± 0.5 µM | –
COc1ccc(C(=O)Nc2cc3ccc(O[C@@H]4OC(C)(C)[C@H](OC)[C@@H](O)[C@H]4O)c(C)c3oc2=O)cc1-c1cccc(O)c1 [compound 36, N-(7-((2R,3R,4S,5R)-3,4-Dihydroxy-5-methoxy-6,6-dimethyltetrahydro-2H-pyran-2-yloxy)-8-methyl-2-oxo-2H-chromen-3-yl)-3′-hydroxy-6-methoxybiphenyl-3-carboxamide] | 5.3 ± 1.5 µM | 14.7 ± 2.4 µM | 2.5 ± 1.2 µM | 1.1 µM | 4.5 ± 1.2 µM | 2.9 ± 1.2 µM | –
COc1ccc(C(=O)Nc2cc3ccc(O[C@@H]4OC(C)(C)[C@H](OC)[C@@H](O)[C@H]4O)c(C)c3oc2=O)cc1-c1ccc(O)cc1 [compound 37, N-(7-((2R,3R,4S,5R)-3,4-Dihydroxy-5-methoxy-6,6-dimethyltetrahydro-2H-pyran-2-yloxy)-8-methyl-2-oxo-2H-chromen-3-yl)-4′-hydroxy-6-methoxybiphenyl-3-carboxamide] | 2.3 ± 0.8 µM | 22.3 ± 3.6 µM | 2.6 ± 0.5 µM | 1.9 ± 0.8 µM | 1.4 ± 0.1 µM | 1.6 ± 0.2 µM | –
COc1ccc(C(=O)Nc2cc3ccc(O[C@@H]4OC(C)(C)[C@H](OC)[C@@H](O)[C@H]4O)c(C)c3oc2=O)cc1-c1cccc2c1Sc1ccccc1S2 [compound 38, N-(7-((2R,3R,4S,5R)-3,4-Dihydroxy-5-methoxy-6,6-dimethyltetrahydro-2H-pyran-2-yloxy)-8-methyl-2-oxo-2H-chromen-3-yl)-4-methoxy-3-(thianthren-1-yl)benzamide] | > 100 µM | 1 ± 0.1 µM | 8.8 ± 0.6 µM | > 100 µM | > 100 µM | > 100 µM | –
CO[C@@H]1[C@@H](O)[C@@H](O)[C@H](Oc2ccc3cc(NC(=O)c4ccccn4)c(=O)oc3c2C)OC1(C)C [compound 40, N-(7-((2R,3R,4S,5R)-3,4-Dihydroxy-5-methoxy-6,6-dimethyltetrahydro-2H-pyran-2-yloxy)-8-methyl-2-oxo-2H-chromen-3-yl)picolinamide] | – | – | – | – | – | – | IC50 [1, 8]: 20.3 ± 4.1 µM; IC50 [2, 8]: 15.1 ± 2.1 µM; IC50 [3, 8]: 44.9 ± 31.1 µM; IC50 [4, 9]: 7.9 ± 0.7 µM; IC50 [5, 9]: 23.3 ± 5.9 µM; IC50 [6, 8]: 28.4 ± 2 µM
CO[C@@H]1[C@@H](O)[C@@H](O)[C@H](Oc2ccc3cc(NC(=O)c4cccnc4)c(=O)oc3c2C)OC1(C)C [compound 41, N-(7-((2R,3R,4S,5R)-3,4-Dihydroxy-5-methoxy-6,6-dimethyltetrahydro-2H-pyran-2-yloxy)-8-methyl-2-oxo-2H-chromen-3-yl)nicotinamide] | – | – | – | – | – | – | IC50 [1, 8]: 47.8 ± 4.2 µM; IC50 [2, 8]: 67 ± 20.2 µM; IC50 [3, 8]: 50.1 ± 3.3 µM; IC50 [4, 9]: 13.2 ± 1 µM; IC50 [5, 9]: 37.3 ± 1 µM; IC50 [6, 8]: 65.9 ± 15.8 µM
CO[C@@H]1[C@@H](O)[C@@H](O)[C@H](Oc2ccc3cc(NC(=O)c4ccc5c(c4)OCO5)c(=O)oc3c2C)OC1(C)C [compound 45, N-(7-((2R,3R,4S,5R)-3,4-Dihydroxy-5-methoxy-6,6-dimethyltetrahydro-2H-pyran-2-yloxy)-8-methyl-2-oxo-2H-chromen-3-yl)benzo[d][1,3]dioxole-5-carboxamide] | – | – | – | – | – | – | IC50 [1, 8]: > 100 µM; IC50 [2, 8]: 10.9 ± 2.3 µM; IC50 [3, 8]: 9.3 ± 0.6 µM; IC50 [4, 9]: 5.2 ± 1.1 µM; IC50 [5, 9]: > 100 µM; IC50 [6, 8]: > 100 µM
